Assay results published in patent publication EP4707284A1, “HETEROCYCLIC COMPOUND AND USE THEREOF” (Otsuka Pharmaceutical Co., Ltd., priority 2023, dated 2024).

Experiments:
[1] = format: physicochemical; settings: Tris-hydrochloric acid buffer (pH 7.5) 50 mmol/L, magnesium chloride 5 mmol/L, evaluation compound 1 µmol/L, 37°C, 60 minutes, average of duplicate
Method in brief: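 Stability in buffer assessed as brexpiprazole formation: duplicate reactions at 37°C, started by adding compound to pre-warmed solution, quenched at 0 or 60 min with internal-standard-containing acetonitrile/isopropanol (4:1). Calibration curves covered 0.01, 0.1 and 1 µmol/L of compound and brexpiprazole.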

[2] = test system: HL-60 cells; experiment: in vitro; format: cell-based, human; settings: 300 µmol/L, about 24 hours; for cytotoxicity (%) Evaluation compound results: PMA-differentiated HL-60 cells, LDH activity, no-treatment group 0%, cell lysis buffer-treated group 100%
Experimental: An HL-60 cell line (human acute promyelocytic leukemia cells) was successively cultured in RPMI 1640 containing 20% fetal bovine serum (FBS) at 37°C in 95% atmosphere/5% CO2. Before evaluation, the cells were pre-cultured for about 72 hours in the presence of 10 nM phorbol 12-myristate 13-acetate (PMA) to induce macrophage-like differentiation.
Evaluation compounds were dissolved in DMSO to obtain 30 mmol/L solutions (or suspensions). Each DMSO solution was diluted 100-fold with RPMI 1640 containing 2% FBS (final concentration of the compound: 300 µmol/L) to obtain a treatment solution. The culture supernatant of the differentiated HL-60 cells was removed, and each treatment solution was added and cultured for about 24 hours, followed by cytotoxicity evaluation.
The activity of lactate dehydrogenase (LDH) was measured in the treatment solutions exposed to the cells for about 24 hours by using a commercial kit (Cytotoxicity LDH Assay Kit-WST, Dojindo Laboratories) and a plate reader (Tecan Infinite M1000). The obtained measurement values were used to calculate cytotoxicity (%) as comparison values for each evaluation compound-treated group, with the no-treatment group taken as 0% and the cell lysis buffer-treated group taken as 100%. The test was conducted in triplicate in three wells each, and the average values were used as adopted values.

[3] = Dog irritation study (subcutaneous administration); format: in vivo, dogs; settings: stated in the cytotoxicity method, no details
Experimental: Male beagle dogs were purchased at the age of 5-7 months from Kitayama Labes Co., Ltd. and used in the experiment after acclimatization. The breeding environment was as follows: feeding: 250 g of solid feed once a day, water intake: unlimited, number of animals per cage: 1, temperature: 21-25°C, humidity: 50-70%, lighting time: 7:00-19:00. The test formulation was subcutaneously administered to dogs anesthetized with 25 mg/kg thiopental sodium using a plastic syringe at a dose of 10 mg/kg per formulation, changing the position on the back. […] The collected tissues were fixed in 10% neutral buffered formalin, and hematoxylin and eosin-stained specimens were prepared for histopathological examination.

| SMILES | Concentration of brexpiprazole formed [1] | Concentration of evaluation compound decreased [1] | cytotoxicity (%) Evaluation compound results [2] | cytotoxicity compared with control compounds (in words) [2] | irritation when subcutaneously administered to dogs [3] |
| --- | --- | --- | --- | --- | --- |
| COCCn1nc(C(=O)OCOP(=O)([O-])OC[N+]2(CCCCOc3ccc4ccc(=O)[nH]c4c3)CCN(c3cccc4sccc34)CC2)c2ccccc21 [EX 82] | 0 nM | 20 nM | -2% | – | – |
| COCCN(CCOC)P(=O)([O-])OC[N+]1(CCCCOc2ccc3ccc(=O)[nH]c3c2)CCN(c2cccc3sccc23)CC1 [EX 153] | 0 nM | -10 nM | -7% | – | – |
| CC(C)(C)[Si](C)(C)OCCCCOP(=O)([O-])OC[N+]1(CCCCOc2ccc3ccc(=O)[nH]c3c2)CCN(c2cccc3sccc23)CC1 [EX 60] | 0 nM | 90 nM | 16% | – | – |
| O=C(OC[N+]1(CCCCOc2ccc3ccc(=O)[nH]c3c2)CCN(c2cccc3sccc23)CC1)N1CCCCC1.[I-] [REX 4, 4-(benzo[b]thiophen-4-yl)-1-(4-((2-oxo-1,2-dihydroquinolin-7-yl)oxy)butyl)-1-(((piperidine-1-carbonyl)oxy)methyl)piperazin-1-ium iodide, reference compound] | – | – | 83% | stronger cytotoxicity than that of the Reference Example 3 compound | – |
| CCCCCC(=O)OCn1c(=O)ccc2ccc(OCCCCN3CCN(c4cccc5sccc45)CC3)cc21 [Reference Example 3 compound, (7-(4-(4-(benzo[b]thiophen-4-yl)piperazin-1-yl)butoxy)-2-oxoquinolin-1(2H)-yl)methyl hexanoate] | – | – | – | – | showed irritation |
